Results on three compounds are retold here after ChEMBL document CHEMBL1909046, “DrugMatrix in vitro pharmacology data”.

Each structure is given as a SMILES string.

Sequence of Cannabinoid receptor 1 (P21554 whole entry): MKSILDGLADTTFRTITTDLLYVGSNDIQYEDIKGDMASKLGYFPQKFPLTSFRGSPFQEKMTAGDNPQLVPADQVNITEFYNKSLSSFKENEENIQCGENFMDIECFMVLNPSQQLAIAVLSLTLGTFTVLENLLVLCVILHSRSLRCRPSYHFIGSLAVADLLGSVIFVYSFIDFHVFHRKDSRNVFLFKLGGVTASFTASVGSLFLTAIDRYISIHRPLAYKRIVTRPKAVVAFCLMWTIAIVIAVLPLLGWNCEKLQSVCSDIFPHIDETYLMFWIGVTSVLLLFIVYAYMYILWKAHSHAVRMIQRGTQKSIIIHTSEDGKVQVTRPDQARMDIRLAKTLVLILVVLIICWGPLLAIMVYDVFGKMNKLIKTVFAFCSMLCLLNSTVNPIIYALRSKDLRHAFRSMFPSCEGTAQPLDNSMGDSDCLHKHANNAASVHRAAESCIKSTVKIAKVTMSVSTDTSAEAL
Sequence of Kappa-type opioid receptor (P41145 whole entry): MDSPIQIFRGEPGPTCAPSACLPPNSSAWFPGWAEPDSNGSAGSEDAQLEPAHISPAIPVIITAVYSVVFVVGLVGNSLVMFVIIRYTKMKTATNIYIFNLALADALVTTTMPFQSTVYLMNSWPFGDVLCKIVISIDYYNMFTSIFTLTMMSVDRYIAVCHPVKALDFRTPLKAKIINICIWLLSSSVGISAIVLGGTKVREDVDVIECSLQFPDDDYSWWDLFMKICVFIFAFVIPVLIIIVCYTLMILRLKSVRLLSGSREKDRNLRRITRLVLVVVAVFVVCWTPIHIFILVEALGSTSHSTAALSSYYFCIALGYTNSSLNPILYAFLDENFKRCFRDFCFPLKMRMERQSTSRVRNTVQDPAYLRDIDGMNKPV

For the first data set, the target named is T1, Alpha-2C adrenergic receptor (Homo sapiens, UniProt P18825).
T1 sequence (P18825 whole entry): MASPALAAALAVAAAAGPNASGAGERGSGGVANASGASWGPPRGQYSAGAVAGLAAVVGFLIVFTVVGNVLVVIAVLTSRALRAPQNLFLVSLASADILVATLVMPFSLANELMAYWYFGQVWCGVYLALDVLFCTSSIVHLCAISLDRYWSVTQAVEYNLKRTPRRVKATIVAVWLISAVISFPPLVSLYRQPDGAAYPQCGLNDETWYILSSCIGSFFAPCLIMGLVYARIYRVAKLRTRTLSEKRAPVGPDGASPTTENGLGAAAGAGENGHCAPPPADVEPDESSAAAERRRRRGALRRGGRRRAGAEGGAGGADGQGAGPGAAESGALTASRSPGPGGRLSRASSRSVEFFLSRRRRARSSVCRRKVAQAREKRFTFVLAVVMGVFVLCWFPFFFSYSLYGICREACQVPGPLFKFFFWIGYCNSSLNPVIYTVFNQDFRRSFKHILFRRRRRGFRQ
Description: DRUGMATRIX: Adrenergic Alpha-2C radioligand binding (ligand: [3H] MK-912). The format is cell membranes, Sf9, Membrane. The following applies: sf9.
Consider `CC[C@@]1(O)C(=O)OCc2c1cc1n(c2=O)Cc2cc3ccccc3nc2-1` [CAMPTOTHECIN], for which the IC50 result is listed as “Not Active”.

Consider `NCC1(CC(=O)O)CCCCC1` [GABAPENTIN], for which the IC50 result is “Not Active”.

As to `CN1C(C(=O)Nc2ccccn2)=C(O)c2ccccc2S1(=O)=O` [PIROXICAM], the IC50 entry is listed as “Not Active”.

A further data set concerns the target Cannabinoid receptor 1 (Homo sapiens, UniProt P21554). The format is cell membranes, Membrane. Conditions: chem-1. Further: in other assays of this panel Not Active means under 50% inhibition at 10 µM.
`CC[C@@]1(O)C(=O)OCc2c1cc1n(c2=O)Cc2cc3ccccc3nc2-1` [CAMPTOTHECIN]: the IC50 result is “Not Active”.

Regarding `NCC1(CC(=O)O)CCCCC1` [GABAPENTIN], the IC50 entry is listed as “Not Active”.

On to `CN1C(C(=O)Nc2ccccn2)=C(O)c2ccccc2S1(=O)=O` [PIROXICAM], for which the IC50 result is “Not Active”.

System in another data set: not listed separately
Description: DRUGMATRIX: Atrial Natriuretic Factor (ANF) radioligand binding (ligand: [125I] ANF (rat)). The following applies: Not Active = under 50% inhibition at 10 µM. The format is cell membranes, Cavia porcellus, Dunkin-Hartley, Adrenal gland, Membrane.
Turning to `CC[C@@]1(O)C(=O)OCc2c1cc1n(c2=O)Cc2cc3ccccc3nc2-1` [CAMPTOTHECIN], the IC50 result is listed as “Not Active” and the Ki result was “Not Active”.

As for `NCC1(CC(=O)O)CCCCC1` [GABAPENTIN], the IC50 result is “Not Active” and the Ki entry was “Not Active”.

With `CN1C(C(=O)Nc2ccccn2)=C(O)c2ccccc2S1(=O)=O` [PIROXICAM], the IC50 entry is on record as “Not Active” and the Ki entry was “Not Active”.

For another data set, the target named is Cytochrome P450 2C9 (Homo sapiens, UniProt P11712). Conditions: bti-tn-5b1-4. Further: in other assays of this panel Not Active means under 50% inhibition at 10 µM.
Sequence of Cytochrome P450 2C9 (P11712 whole entry): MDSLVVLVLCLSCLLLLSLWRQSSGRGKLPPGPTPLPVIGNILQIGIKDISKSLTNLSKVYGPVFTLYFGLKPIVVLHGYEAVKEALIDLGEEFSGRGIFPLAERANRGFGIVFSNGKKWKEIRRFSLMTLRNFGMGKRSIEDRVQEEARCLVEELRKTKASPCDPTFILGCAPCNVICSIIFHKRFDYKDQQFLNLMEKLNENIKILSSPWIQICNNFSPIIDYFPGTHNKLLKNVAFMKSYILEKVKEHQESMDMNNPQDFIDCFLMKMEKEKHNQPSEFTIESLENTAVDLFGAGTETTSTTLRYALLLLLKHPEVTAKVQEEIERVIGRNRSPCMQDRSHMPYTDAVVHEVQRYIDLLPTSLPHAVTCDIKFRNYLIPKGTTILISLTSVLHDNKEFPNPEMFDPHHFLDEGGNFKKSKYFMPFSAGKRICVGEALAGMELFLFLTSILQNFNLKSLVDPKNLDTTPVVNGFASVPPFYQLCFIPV
Consider `CC[C@@]1(O)C(=O)OCc2c1cc1n(c2=O)Cc2cc3ccccc3nc2-1` [CAMPTOTHECIN], for which the IC50 result is on record as “Not Active” and the Ki entry is on record as “Not Active”.

Take `NCC1(CC(=O)O)CCCCC1` [GABAPENTIN]: the IC50 entry was “Not Active” and the Ki entry is “Not Active”.

With `CN1C(C(=O)Nc2ccccn2)=C(O)c2ccccc2S1(=O)=O` [PIROXICAM], the IC50 entry is “Not Active” and the Ki result was “Not Active”.

Another data set deals with T2, Muscarinic acetylcholine receptor M2 (Homo sapiens, UniProt P08172).
T2 sequence (P08172 whole entry): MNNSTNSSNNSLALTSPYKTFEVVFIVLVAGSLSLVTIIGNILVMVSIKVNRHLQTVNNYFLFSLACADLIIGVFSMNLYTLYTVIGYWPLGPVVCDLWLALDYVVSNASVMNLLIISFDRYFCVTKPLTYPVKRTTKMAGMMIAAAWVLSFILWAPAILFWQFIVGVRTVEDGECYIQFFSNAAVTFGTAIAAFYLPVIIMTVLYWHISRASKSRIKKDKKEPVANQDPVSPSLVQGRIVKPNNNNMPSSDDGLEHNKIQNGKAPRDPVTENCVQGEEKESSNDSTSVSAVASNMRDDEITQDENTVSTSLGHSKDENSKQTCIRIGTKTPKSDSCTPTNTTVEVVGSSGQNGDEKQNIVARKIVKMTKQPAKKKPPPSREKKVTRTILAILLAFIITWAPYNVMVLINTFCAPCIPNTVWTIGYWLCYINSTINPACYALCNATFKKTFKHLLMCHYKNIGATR
The format is cell membranes, CHO-K1, Membrane. The following applies: cho-k1.
In the case of `CC[C@@]1(O)C(=O)OCc2c1cc1n(c2=O)Cc2cc3ccccc3nc2-1` [CAMPTOTHECIN], the IC50 entry is “Not Active”.

`NCC1(CC(=O)O)CCCCC1` [GABAPENTIN]: the IC50 entry is “Not Active”.

For `CN1C(C(=O)Nc2ccccn2)=C(O)c2ccccc2S1(=O)=O` [PIROXICAM], the IC50 result is “Not Active”.

The target in the next data set is T3, 5-hydroxytryptamine receptor 1A (Rattus norvegicus, UniProt P19327). Further: in other assays of this panel Not Active means under 50% inhibition at 10 µM.
T3 sequence (P19327 whole entry): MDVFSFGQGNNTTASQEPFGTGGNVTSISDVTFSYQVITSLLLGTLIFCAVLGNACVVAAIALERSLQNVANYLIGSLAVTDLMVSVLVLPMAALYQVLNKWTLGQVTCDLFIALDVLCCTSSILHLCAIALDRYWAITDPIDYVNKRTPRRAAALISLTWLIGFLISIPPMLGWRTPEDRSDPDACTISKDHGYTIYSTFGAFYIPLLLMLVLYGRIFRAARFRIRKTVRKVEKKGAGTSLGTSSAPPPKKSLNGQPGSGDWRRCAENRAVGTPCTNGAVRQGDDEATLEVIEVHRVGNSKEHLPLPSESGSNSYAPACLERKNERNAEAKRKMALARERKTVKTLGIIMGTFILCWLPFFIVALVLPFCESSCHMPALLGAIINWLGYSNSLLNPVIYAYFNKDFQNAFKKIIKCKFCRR
Type of data set: cell membranes, CHO-K1, Membrane. The following applies: cho-k1.
Consider `CC[C@@]1(O)C(=O)OCc2c1cc1n(c2=O)Cc2cc3ccccc3nc2-1` [CAMPTOTHECIN], for which the IC50 result is recorded as “Not Active”.

As to `NCC1(CC(=O)O)CCCCC1` [GABAPENTIN], the IC50 result is given as “Not Active”.

With `CN1C(C(=O)Nc2ccccn2)=C(O)c2ccccc2S1(=O)=O` [PIROXICAM], the IC50 entry was “Not Active”.

The target of a further data set is Protein phosphatase 3 catalytic subunit alpha (Homo sapiens, UniProt Q08209). Also noted: species or system Escherichia coli.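 Further: inhibition of calcineurin (PP2B) enzyme activity, measured with DiFMUP as the substrate; in other assays of this panel Not Active means under 50% inhibition at 10 µM.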
Details: not given
As to `CC[C@@]1(O)C(=O)OCc2c1cc1n(c2=O)Cc2cc3ccccc3nc2-1` [CAMPTOTHECIN], the IC50 entry was “Not Active”.

Turning to `NCC1(CC(=O)O)CCCCC1` [GABAPENTIN], the IC50 entry is on record as “Not Active”.

As for `CN1C(C(=O)Nc2ccccn2)=C(O)c2ccccc2S1(=O)=O` [PIROXICAM], the IC50 entry is “Not Active”.

The target in the next data set is Sodium-dependent noradrenaline transporter (Homo sapiens, UniProt P23975). Description: DRUGMATRIX: Norepinephrine Transporter radioligand binding (ligand: [125I] RTI-55). The format is cell membranes, MDCK, Membrane. The following applies: mdck; Not Active = under 50% inhibition at 10 µM.
Sequence of Sodium-dependent noradrenaline transporter (P23975 whole entry): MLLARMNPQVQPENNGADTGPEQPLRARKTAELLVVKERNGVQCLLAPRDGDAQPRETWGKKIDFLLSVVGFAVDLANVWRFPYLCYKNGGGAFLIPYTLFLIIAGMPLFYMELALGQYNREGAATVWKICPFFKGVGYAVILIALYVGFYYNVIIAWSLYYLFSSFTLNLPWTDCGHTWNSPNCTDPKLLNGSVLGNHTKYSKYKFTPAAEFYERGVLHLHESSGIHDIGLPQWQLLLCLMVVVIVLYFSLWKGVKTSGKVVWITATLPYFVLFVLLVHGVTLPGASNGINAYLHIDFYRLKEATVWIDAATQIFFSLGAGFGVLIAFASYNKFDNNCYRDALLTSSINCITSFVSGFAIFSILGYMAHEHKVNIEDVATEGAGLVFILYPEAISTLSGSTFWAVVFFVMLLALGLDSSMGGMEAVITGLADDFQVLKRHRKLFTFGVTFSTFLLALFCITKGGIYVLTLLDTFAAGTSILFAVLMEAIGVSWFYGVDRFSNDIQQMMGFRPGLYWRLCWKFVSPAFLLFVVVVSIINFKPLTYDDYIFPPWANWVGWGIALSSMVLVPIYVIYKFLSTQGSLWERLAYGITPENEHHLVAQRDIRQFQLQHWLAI
In the case of `CC[C@@]1(O)C(=O)OCc2c1cc1n(c2=O)Cc2cc3ccccc3nc2-1` [CAMPTOTHECIN], the IC50 entry was “Not Active”.

In the case of `NCC1(CC(=O)O)CCCCC1` [GABAPENTIN], the IC50 entry is on record as “Not Active”.

With `CN1C(C(=O)Nc2ccccn2)=C(O)c2ccccc2S1(=O)=O` [PIROXICAM], the IC50 result is “Not Active”.

System in another data set: not listed separately
Description: DRUGMATRIX: Calcium Channel Type L, Dihydropyridine radioligand binding (ligand: [3H] Nitrendipine). The following applies: Not Active = under 50% inhibition at 10 µM. Type of data set: cell membranes, Rattus norvegicus, Wistar, Cerebral cortex, Membrane.
On to `CC[C@@]1(O)C(=O)OCc2c1cc1n(c2=O)Cc2cc3ccccc3nc2-1` [CAMPTOTHECIN], for which the IC50 entry is listed as “Not Active” and the Ki result is given as “Not Active”.

`NCC1(CC(=O)O)CCCCC1` [GABAPENTIN]: the IC50 result was “Not Active” and the Ki result was “Not Active”.

In the case of `CN1C(C(=O)Nc2ccccn2)=C(O)c2ccccc2S1(=O)=O` [PIROXICAM], the IC50 result is on record as “Not Active” and the Ki result is reported as “Not Active”.

In the next data set the target is Beta-2 adrenergic receptor (Homo sapiens, UniProt P07550). Description: DRUGMATRIX: Adrenergic beta2 radioligand binding (ligand: [3H] CGP-12177). The format is cell membranes, Membrane. The following applies: cho; Not Active = under 50% inhibition at 10 µM.
Sequence of Beta-2 adrenergic receptor (P07550 whole entry): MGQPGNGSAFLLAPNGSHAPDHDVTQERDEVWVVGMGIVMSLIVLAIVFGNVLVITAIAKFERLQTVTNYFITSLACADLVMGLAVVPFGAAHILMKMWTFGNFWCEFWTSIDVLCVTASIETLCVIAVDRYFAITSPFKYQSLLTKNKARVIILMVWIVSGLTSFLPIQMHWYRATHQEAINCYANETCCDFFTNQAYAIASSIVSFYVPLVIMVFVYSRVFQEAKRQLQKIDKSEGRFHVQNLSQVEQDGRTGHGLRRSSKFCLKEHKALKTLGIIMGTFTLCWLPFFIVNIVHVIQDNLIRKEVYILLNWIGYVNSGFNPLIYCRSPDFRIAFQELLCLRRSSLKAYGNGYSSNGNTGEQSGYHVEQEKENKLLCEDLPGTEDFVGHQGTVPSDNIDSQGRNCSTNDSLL
`CC[C@@]1(O)C(=O)OCc2c1cc1n(c2=O)Cc2cc3ccccc3nc2-1` [CAMPTOTHECIN]: the IC50 result is “Not Active”.

With `NCC1(CC(=O)O)CCCCC1` [GABAPENTIN], the IC50 entry is on record as “Not Active”.

Regarding `CN1C(C(=O)Nc2ccccn2)=C(O)c2ccccc2S1(=O)=O` [PIROXICAM], the IC50 entry is listed as “Not Active”.

System in a further data set: not listed separately
Description: DRUGMATRIX: Phosphodiesterase PDE3 enzyme inhibition (substrate: [3H]cAMP + cAMP). The format is tissue-based, Homo sapiens. Conditions: platelet; Not Active = under 50% inhibition at 10 µM.
In the case of `CC[C@@]1(O)C(=O)OCc2c1cc1n(c2=O)Cc2cc3ccccc3nc2-1` [CAMPTOTHECIN], the IC50 result is on record as “Not Active” and the Ki result was “Not Active”.

Take `NCC1(CC(=O)O)CCCCC1` [GABAPENTIN]: the IC50 entry is “Not Active” and the Ki result was “Not Active”.

As to `CN1C(C(=O)Nc2ccccn2)=C(O)c2ccccc2S1(=O)=O` [PIROXICAM], the IC50 result was “Not Active” and the Ki result is on record as “Not Active”.

The target in the next data set is T4, Endothelin-1 receptor (Homo sapiens, UniProt P25101). Further: in other assays of this panel Not Active means under 50% inhibition at 10 µM.
T4 sequence (P25101 whole entry): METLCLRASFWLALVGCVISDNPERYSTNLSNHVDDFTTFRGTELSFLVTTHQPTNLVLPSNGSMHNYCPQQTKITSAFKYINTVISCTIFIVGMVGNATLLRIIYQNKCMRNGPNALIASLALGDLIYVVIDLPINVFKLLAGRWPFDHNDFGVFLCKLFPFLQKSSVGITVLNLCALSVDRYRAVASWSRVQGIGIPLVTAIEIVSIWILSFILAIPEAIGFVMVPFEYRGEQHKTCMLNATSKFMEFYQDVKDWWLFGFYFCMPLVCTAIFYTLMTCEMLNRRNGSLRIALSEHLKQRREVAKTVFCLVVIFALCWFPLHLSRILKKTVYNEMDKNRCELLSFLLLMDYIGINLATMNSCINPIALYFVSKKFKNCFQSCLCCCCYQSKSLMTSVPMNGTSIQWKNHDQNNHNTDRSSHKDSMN
The format is cell membranes, Membrane. The following applies: cho-k1.
As for `CC[C@@]1(O)C(=O)OCc2c1cc1n(c2=O)Cc2cc3ccccc3nc2-1` [CAMPTOTHECIN], the IC50 entry was “Not Active”.

As to `NCC1(CC(=O)O)CCCCC1` [GABAPENTIN], the IC50 result was “Not Active”.

Consider `CN1C(C(=O)Nc2ccccn2)=C(O)c2ccccc2S1(=O)=O` [PIROXICAM], for which the IC50 entry was “Not Active”.

A further data set concerns the target Kappa-type opioid receptor (Homo sapiens, UniProt P41145). Description: DRUGMATRIX: Opiate kappa (OP2, KOP) radioligand binding (ligand: [3H] Diprenorphine). The format is cell membranes, HEK293, Membrane. The following applies: hek293; Not Active = under 50% inhibition at 10 µM.
On to `CC[C@@]1(O)C(=O)OCc2c1cc1n(c2=O)Cc2cc3ccccc3nc2-1` [CAMPTOTHECIN], for which the IC50 entry is “Not Active”.

As for `NCC1(CC(=O)O)CCCCC1` [GABAPENTIN], the IC50 entry is given as “Not Active”.

`CN1C(C(=O)Nc2ccccn2)=C(O)c2ccccc2S1(=O)=O` [PIROXICAM]: the IC50 entry is “Not Active”.

System in another data set: not listed separately
Description: DRUGMATRIX: GABAA, Flunitrazepam, Central radioligand binding (ligand: [3H] Flunitrazepam). The format is cell membranes, Rattus norvegicus, Wistar, Brain, Membrane. The following applies: Not Active = under 50% inhibition at 10 µM.
Consider `CC[C@@]1(O)C(=O)OCc2c1cc1n(c2=O)Cc2cc3ccccc3nc2-1` [CAMPTOTHECIN], for which the IC50 entry is recorded as “Not Active” and the Ki entry is on record as “Not Active”.

Consider `NCC1(CC(=O)O)CCCCC1` [GABAPENTIN], for which the IC50 entry was “Not Active” and the Ki result is “Not Active”.

Take `CN1C(C(=O)Nc2ccccn2)=C(O)c2ccccc2S1(=O)=O` [PIROXICAM]: the IC50 result is listed as “Not Active” and the Ki result is reported as “Not Active”.
